Measured values published in PMC11324666, “Two novel in vitro assays to screen chemicals for their capacity to inhibit thyroid hormone transmembrane transporter proteins OATP1C1 and OAT4” (Archives of Toxicology, 2024).
Read-outs that look alike come from different tables or passages of the source. Blank lines part the entries; values can stand above or below the compound they belong to.

Experiments:
[1] = tested on: MDCK-OAT4 cells; assay: CellTiter-Glo luminescent cell viability assay in MDCK-OAT4 cells; conditions: concentration that inhibits cell viability by 10%; MDCK-OAT4 cells, 20 min exposure
Description: (§1) Cell viability was assessed through the quantitation of ATP present in cells using the commercially available CellTiter-Glo® luminescent cell viability assay and performed according to the manufacturer’s instruction (Promega, Leiden, the Netherlands). Briefly, cells were seeded as described earlier in opaque-walled clear-bottom 96 well plates. On the day of the experiment, each well was washed with 200 µL phosphate buffered saline (PBS) and exposed to 80 µL of uptake buffer, 10 µL of a tenfold stock of test compound solved in uptake buffer or control and 10 µL of T4 (final concentration 10 nM). 0.1% DMSO was used as a solvent control, while 10% DMSO was used as a positive control. After exposure for the indicated times similar to THTMT TH uptake assay, cells were immediately washed with ice-cold PBS + 0.1%BSA and exposed to 100 µL of the CellTiter-Glo® Reagent. Plates were then shaken on an orbital shaker for 2 min and left to incubate at room temperature for 10 min. Luminescence was measured on a BioTek Cytation 5 microplate reader. […] Each individual experiment was repeated at least twice and contained three technical replicates of each control and concentration tested.
Figure S2. […] Blue dots indicate the plate medians from three or four independent experiments, all control and chemical concentrations were tested in triplicates per plate. The black line indicates the best-fit concentrations response curve, the dotted line the corresponding 95% confidence interval.

[2] = tested on: CHO-K1 OATP1C1 cells; conditions: for Cytotoxicity IC10: concentration that inhibits cell viability by 10%, CHO-K1 OATP1C1 cells, 30 min exposure; for cytotoxic effects: at concentrations of the uptake assay, Figure S1
Description: as §1
Figure S1. […] Blue dots indicate the plate medians from three or four independent experiments, all control and chemical concentrations were tested in triplicates per plate.

[3] = biological target: T1, OATP1C1 (Homo sapiens, UniProt Q9NYB5); assay: CHO-K1 OATP1C1 TH uptake assay with 125I-T4 tracer; assay type: cell-based
T1 construct: host or cells: CHO-K1
T1 sequence (Q9NYB5 1-712): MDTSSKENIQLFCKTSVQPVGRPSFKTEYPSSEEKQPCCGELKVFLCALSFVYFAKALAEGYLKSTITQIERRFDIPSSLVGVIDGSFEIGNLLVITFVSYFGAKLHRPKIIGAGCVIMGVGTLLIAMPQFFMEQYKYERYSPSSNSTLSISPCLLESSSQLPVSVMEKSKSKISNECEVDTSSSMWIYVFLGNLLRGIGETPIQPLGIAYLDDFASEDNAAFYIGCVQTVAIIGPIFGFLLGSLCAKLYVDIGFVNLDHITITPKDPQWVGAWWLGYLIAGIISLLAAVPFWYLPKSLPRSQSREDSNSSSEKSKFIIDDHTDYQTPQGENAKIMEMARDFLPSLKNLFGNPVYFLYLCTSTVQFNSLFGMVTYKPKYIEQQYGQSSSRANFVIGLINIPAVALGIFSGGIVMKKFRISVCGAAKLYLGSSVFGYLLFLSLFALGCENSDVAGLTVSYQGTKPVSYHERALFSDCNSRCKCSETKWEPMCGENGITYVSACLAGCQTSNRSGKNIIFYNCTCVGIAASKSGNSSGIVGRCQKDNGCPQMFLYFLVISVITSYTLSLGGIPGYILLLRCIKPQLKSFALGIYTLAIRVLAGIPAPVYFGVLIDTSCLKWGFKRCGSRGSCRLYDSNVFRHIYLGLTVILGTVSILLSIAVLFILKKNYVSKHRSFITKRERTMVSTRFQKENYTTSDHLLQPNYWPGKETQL
Description: (§2) MDCK-OAT4 and MDCK-DEST cells were cultured in DMEM:F12 (L-glutamine, 15 mM HEPES) (Gibco) supplemented with (100 µg/mL penicillin + 100 µg/mL streptomycin), 10% fetal calf serum (Gibco) and 2 µg/mL blasticidin (Sigma). CHO-K1 OATP1C1 or WT cells were cultured in F12 nutrient mix (Gibco) supplemented with (100 µg/mL penicillin + 100 µg/mL streptomycin), 10% fetal calf serum (Gibco) and […] G418 (Sigma). All cell cultures were incubated at 37 °C with 5% CO2 saturation until 80% confluency. MDCK-OAT4 and MDCK-DEST cells were seeded in 96 wells plate at a density of 4 × 10^5 cells in 100 µL medium per well and incubated for 24 h before the start of the MDCK-OAT4 TH uptake assay. CHO-K1 OATP1C1 and WT cells were seeded in 96 wells plate at a density of 3 × 10^5 cells in 100 µL medium per well 72 h before the CHO-K1 OATP1C1 TH uptake assay. Medium from CHO-K1 OATP1C1 or WT assay plates was changed to serum-free F12 medium containing 5 mM sodium-butyrate 24 h before start of the CHO-K1 OATP1C1 TH uptake assay to increase transfected expression of SV-40 promotor plasmids.
(§3) Subsequently 10 µL of a tenfold stock of test compound in uptake buffer (solvent concentration 1% v/v) was added to each well. […] Cells were exposed at 37 °C for 20 min (MDCK-OAT4) or 30 min (CHO-K1 OATP1C1), unless stated differently. After exposure, cells were immediately washed with ice-cold PBS supplemented with 0.1% bovine serum albumin (BSA). Subsequently, cells were lysed in 50 µL of 0.1 M NaOH under continuous shaking at room temperature. After 20 min, cell lysates were manually transferred into separate 5 mL polypropylene tubes. One tube was also prepared with 10 µL of the T4 tracer solution. Radioactivity was measured in a Wizard^2 gamma counter (Perkin Elmer).
(§4) For the CHO-K1 OATP1C1 TH uptake assay total of 29 chemicals (Table 1) were selected for the EDC screening based on available literature data. […] The same chemicals were selected for the MDCK-OAT4 TH uptake assay, with the exception of BPF, VRP and TCS. […] The THTMT TH uptake assay was then performed as described earlier. […] A concentration of 100 µM ICG was used as a reference chemical for OATP1C1 and 100 µM LESI for OAT4. At least three independent experiments were performed for each chemical.
(§5) Raw values were normalized to the total amount of radioactivity in the T4 tracer solution. These values were expressed as a percentage of total radioactivity added (or uptake percentage) and used for all further data analysis. Statistically significant differences between the T4 uptake of transfected and wild type cells, in the presence or absence of inhibitor, were determined by two-way ANOVA (α = 5%, two-sided). […] In brief, uptake values were normalized to the median response of the vehicle and positive controls for each plate. […] Statistical analysis were performed using GraphPad Prism version 8 for Windows (GraphPad Software, San Diego, California USA) and SAS 9.3 (SAS Institute, Cary NC).

[4] = tested on: oatp1c1; design: method as in Westholm et al. (2009); conditions: T4 1 nM; ref Westholm et al. (2009); read-out: IC50 of T4 transmembrane transport inhibition; cited from earlier work
[5] = biological target: T2, OAT4 (Homo sapiens, UniProt Q9NSA0); assay: MDCK-OAT4 TH uptake assay with 125I-T4 tracer; assay type: cell-based; conditions: 10 nM T4, 20 min; for T4 uptake inhibition BMC20 (M), [CI]: concentration that inhibits 125I-T4 uptake by 20%, brackets = 95% CI; for 125I-T4 uptake compared to the vehicle control (range finding): single concentration 10 or 100 µM, below 80% = positive hit
T2 construct: V5 (from pLenti6/V5-DEST); expressed in transfected cells; host or cells: MDCK-1 (lentiviral transduction, blasticidin selection)
T2 sequence (Q9NSA0 1-550): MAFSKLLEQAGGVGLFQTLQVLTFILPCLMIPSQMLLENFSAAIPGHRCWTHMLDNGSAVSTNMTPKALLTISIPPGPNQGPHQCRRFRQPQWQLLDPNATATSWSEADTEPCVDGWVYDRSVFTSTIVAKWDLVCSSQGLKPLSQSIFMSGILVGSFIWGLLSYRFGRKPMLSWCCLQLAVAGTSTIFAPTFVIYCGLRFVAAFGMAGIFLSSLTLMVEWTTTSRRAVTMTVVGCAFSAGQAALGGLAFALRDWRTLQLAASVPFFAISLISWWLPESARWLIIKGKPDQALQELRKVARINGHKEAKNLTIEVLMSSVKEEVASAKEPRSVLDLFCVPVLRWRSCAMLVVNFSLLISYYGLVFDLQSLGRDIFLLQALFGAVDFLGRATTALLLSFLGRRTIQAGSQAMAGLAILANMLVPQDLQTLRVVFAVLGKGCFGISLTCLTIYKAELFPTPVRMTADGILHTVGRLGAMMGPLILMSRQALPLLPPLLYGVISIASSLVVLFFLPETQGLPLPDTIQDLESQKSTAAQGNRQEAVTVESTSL
Description: Subsequently OAT4 in pENTR™/D-TOPO® Vector was shuffled into the pLenti6/V5-DEST vector (Thermo Fisher) using Gateway™ LR Clonase™ II Enzyme mix (Thermo Fisher) according to the manufacture’s protocol.
To generate an OAT4 stable cell line, MDCK-1 cells were plated in 12-well plates with full growth medium and transduced with fresh viral supernatants in the absence of antibiotics in medium. After 2 days, MDCK-1 cells transduced with OAT4 (MDCK-OAT4) or empty vector (MDCK-DEST) were selected in full growth medium supplemented with 2 µg/mL blasticidin and further maintained under blasticidin selection.
as §2, §3
as §4, with “chemical. Each individual experiment contained three technical replicates of each control and concentration tested.” for “chemical.”
as §5

[6] = concentration that inhibits 125I-T4 uptake by 20%, 10 nM T4, 30 min, brackets = 95% CI

- T4 uptake inhibition BMC20 (M), [CI] [3, 6]: 4.34E−07 [1.97E−07; 9.56E−07] M
Compound: O=C(O)CSc1nnc(Br)n1-c1ccc(C2CC2)c2ccccc12 [Lesinurad, reference compound]
- Cytotoxicity IC10 [1]: > 100 µM
- Cytotoxicity IC10 [2]: > 100 µM

Compound: Oc1ccc(C2(c3ccc(O)cc3)CCCCC2)cc1 [Bisphenol Z, Bisphenol-Z]
- Cytotoxicity IC10 [2]: > 100 µM

- T4 uptake inhibition BMC20 (M), [CI] [5]: 3.22E−06 [6.39E−07; 1.62E−05] M
Compound: O=C(O)Cc1ccccc1Nc1c(Cl)cccc1Cl [Diclofenac, reference compound]
- IC50 [4]: 4 µM

- uptake of 125I-T4 with excess of unlabeled T4 ([3]; 1 µM unlabeled T4): quenched the uptake
Compound: NC(Cc1cc(I)c(Oc2cc(I)c(O)c(I)c2)c(I)c1)C(=O)O (stereo not drawn) [T4, Thyroxine, reference compound]

Compound: β-Estradiol-3-sulfate [ß-Estrone-3-sulfate, reference compound]
- T4 uptake inhibition BMC20 (M), [CI] [5]: 1.55E−06 [5.32E−07; 4.51E−06] M
- 125I-T4 uptake compared to the vehicle control (range finding) [5]: below 80%

- T4 uptake inhibition BMC20 (M), [CI] [3, 6]: 1.90E−05 [1.28E−05; 2.83E−05] M
Compound: CC(C)(c1ccc(O)cc1)c1ccc(O)cc1 [Bisphenol A, Bisphenol-A]
- cytotoxic effects [2]: confounded by cytotoxic effects
- Cytotoxicity IC10 [2]: 4.34 µM

Compound: Oc1cc(Cl)ccc1Oc1ccc(Cl)cc1Cl [Triclosan]
- cytotoxic effects [2]: confounded by cytotoxic effects
- Cytotoxicity IC10 [2]: 0.378 µM
- T4 uptake inhibition BMC20 (M), [CI] [3]: 2.30E−06 [1.38E−06; 3.83E−06] M

Compound: O=S(=O)(c1ccc(O)cc1)c1ccc(O)cc1 [Bisphenol S, Bisphenol-S]
- 125I-T4 uptake compared to the vehicle control (range finding) [5]: ≥ 80%

Compound: [CH3][Hg][Cl] [MeHg, Methyl mercury]
- 125I-T4 uptake compared to the vehicle control (range finding) ([3]; single concentration 10 or 100 µM, 10 nM T4, 30 min, below 80% = positive hit): ≥ 80%
- 125I-T4 uptake compared to the vehicle control (range finding) [5]: ≥ 80%
